Test results reported in PMC7613620, “Reaction hijacking of tyrosine tRNA synthetase as a whole-of-life-cycle antimalarial strategy” (Science (New York, N.Y.), 2022).

How the values were obtained:
[1] = biological target: PfYRS (Plasmodium falciparum, UniProt Q8IAR7); test: biochemical; format: binding; details: PfYRS incubated with ML901 in the presence of Tyr, ATP and tRNATyr
Experimental: 804 An intron was detected in the PftRNATyr sequence, that was not indicated in PlasmoDB. A T7 RNA
805 polymerase promoter sequence was added to the 5’ end of the DNA sequence of P. falciparum and H.
806 sapiens tRNATyr. This DNA template and its complementary strand were custom-synthesized by Sigma-
807 Aldrich. Two oligonucleotides were annealed at 95°C for 5 min and the double-stranded DNA template
808 was used for in vitro transcription. The transcription reaction was incubated at 37°C overnight. The reaction
809 mixture consists of template DNA, T7 RNA polymerase and NTP mix as per manufacturer's instructions
810 (HiScribe™ T7 Quick High Yield RNA Synthesis Kit, NEB). On the following day, the reaction mixture
811 was treated with DNase I at 37°C for 15 min. tRNA was purified using RNA clean-up spin columns
812 (Monarch® RNA Cleanup Kit, NEB) to remove contaminants from the transcription reaction.
814 Differential scanning fluorimetry (DSF)
815 PfYRS and HsYRS at 0.1 mg/ml were incubated with various substrates at 37°C for 1-3 h. PfYRS was
816 assayed in 25 mM Tris, pH 8, 150 mM NaCl, 5 mM MgCl2 and 1 mM TCEP. HsYRS was assayed in 50
817 mM Tris, pH 7.5, 150 mM NaCl, 50 mM KCl, 5 mM MgCl2 and 1 mM TCEP. SYPRO Orange (Sigma-
818 Aldrich; 5,000X concentrate in DMSO) was added to the reaction mixture at a final concentration of 2.5X.
819 25 µL of the sample was added into each well of a 96-well qPCR plate (Applied Biosystems). The plate
820 was sealed and analysed using StepOnePlus Real-Time PCR system (Applied Biosystems). The samples
821 were heated from 20°C to 90°C with a 1% continuous gradient. The thermal unfolding curve was plotted
822 as the first derivative curve of the raw fluorescence values. The melting temperature (Tm), defined as the
823 peak of the first derivative curve, was used to assess the thermal stability of protein-ligand complexes. KD
824 values were calculated from DTm using the equation: ln(KD/[L]) = -131.5 x (∆Tm/Tm,apo) - 1.9, where [L]
825 is the concentration of ligand and T is the temperature in Kelvin (40). […]

[2] = Caco2 permeability; format: in vitro ADME; details: human, Caco-2
[3] = biological target: NEDD8-activating enzyme (NAE) (Homo sapiens, UniProt Q8TBC4); test: E1-E2 transthiolation HTRF assay, NAE; format: biochemical
Sequence of NEDD8-activating enzyme (NAE) (Q8TBC4 whole entry): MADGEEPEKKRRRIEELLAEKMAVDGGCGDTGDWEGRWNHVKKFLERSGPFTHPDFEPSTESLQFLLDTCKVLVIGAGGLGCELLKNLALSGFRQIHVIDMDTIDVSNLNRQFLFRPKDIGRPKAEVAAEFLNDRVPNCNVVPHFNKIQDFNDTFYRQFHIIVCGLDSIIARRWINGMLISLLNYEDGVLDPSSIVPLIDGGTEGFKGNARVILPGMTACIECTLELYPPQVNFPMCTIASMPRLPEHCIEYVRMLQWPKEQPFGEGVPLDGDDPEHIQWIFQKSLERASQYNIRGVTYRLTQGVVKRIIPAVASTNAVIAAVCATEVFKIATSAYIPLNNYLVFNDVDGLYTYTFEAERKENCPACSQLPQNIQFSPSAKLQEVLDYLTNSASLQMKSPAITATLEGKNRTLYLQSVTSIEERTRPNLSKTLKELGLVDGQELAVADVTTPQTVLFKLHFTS
Sequence of NEDD8-activating enzyme (NAE) (Q13564 whole entry partner): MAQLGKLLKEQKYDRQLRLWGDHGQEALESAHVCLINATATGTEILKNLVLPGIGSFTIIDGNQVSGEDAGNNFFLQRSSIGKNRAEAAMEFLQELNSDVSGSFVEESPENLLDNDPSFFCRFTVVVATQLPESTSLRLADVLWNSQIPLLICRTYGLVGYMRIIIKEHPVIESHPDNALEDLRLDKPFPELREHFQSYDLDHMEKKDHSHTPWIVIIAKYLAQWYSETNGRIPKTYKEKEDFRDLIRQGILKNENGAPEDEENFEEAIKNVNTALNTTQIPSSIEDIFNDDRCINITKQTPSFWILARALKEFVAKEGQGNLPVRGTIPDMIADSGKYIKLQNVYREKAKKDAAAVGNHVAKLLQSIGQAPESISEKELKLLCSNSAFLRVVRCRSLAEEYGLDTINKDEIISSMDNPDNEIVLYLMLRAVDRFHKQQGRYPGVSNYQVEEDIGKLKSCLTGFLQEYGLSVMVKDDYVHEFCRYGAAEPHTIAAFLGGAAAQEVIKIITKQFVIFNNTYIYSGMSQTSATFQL
Text: (§1) 592 E1-E2 Transthiolation Assays
(§2) 593 An Homogeneous Time-Resolved Fluorescence (HTRF) enzyme assay was employed to evaluate
(§3) 594 compound activity against ATG7 as previously described (11). In this assay, a Flag-tagged ATG8 homolog
(§4) 595 (GABA type A receptor-associated protein; GABARAP) is activated by ATG7 and then transthiolated to a
(§5) 596 GST-tagged E2 (ATG3). The product of the enzyme reaction, Flag-GABARAP-ATG3-GST, is quantified
(§6) 597 by measuring FRET between Europium-Cryptate labelled monoclonal anti-Flag M2 (CisBio International,
(§7) 598 Cat# 61FG2KLB) and PHYCOLINK goat anti-GST allophycocyanin (Prozyme, PJ252p1). The activation
(§8) 599 and transthiolation of ubiquitin by Ubiquitin Activating Enzyme, activation and transthiolation of NEDD8
(§9) 600 by NEDD8 Activating Enzyme. […]
(§10) 606 Compounds were incubated with mature stage V gametocytes ([…], kind gift from Professor Chris Janse
(§11) 607 at Leiden University Medical Center (LUMC), the Netherlands) for 48 hours in 384 well plates before
(§12) 608 gamete formation was triggered by a drop in temperature and addition of xanthurenic acid. […]
(§13) 611 Multiple data sets using different gametocyte cultures were collected on each of two separate days.
(§14) 613 Activity against exoerythrocytic stages
(§15) 614 Primary human hepatocytes (H1500.H15B+ Lot No. HC10-10 Cryopreserved human hepatocytes) […]

[4] = biological target: ubiquitin activating enzyme (UAE) (Homo sapiens, UniProt P22314); test: E1-E2 transthiolation HTRF assay, UAE; format: biochemical
Sequence of ubiquitin activating enzyme (UAE) (P22314 whole entry): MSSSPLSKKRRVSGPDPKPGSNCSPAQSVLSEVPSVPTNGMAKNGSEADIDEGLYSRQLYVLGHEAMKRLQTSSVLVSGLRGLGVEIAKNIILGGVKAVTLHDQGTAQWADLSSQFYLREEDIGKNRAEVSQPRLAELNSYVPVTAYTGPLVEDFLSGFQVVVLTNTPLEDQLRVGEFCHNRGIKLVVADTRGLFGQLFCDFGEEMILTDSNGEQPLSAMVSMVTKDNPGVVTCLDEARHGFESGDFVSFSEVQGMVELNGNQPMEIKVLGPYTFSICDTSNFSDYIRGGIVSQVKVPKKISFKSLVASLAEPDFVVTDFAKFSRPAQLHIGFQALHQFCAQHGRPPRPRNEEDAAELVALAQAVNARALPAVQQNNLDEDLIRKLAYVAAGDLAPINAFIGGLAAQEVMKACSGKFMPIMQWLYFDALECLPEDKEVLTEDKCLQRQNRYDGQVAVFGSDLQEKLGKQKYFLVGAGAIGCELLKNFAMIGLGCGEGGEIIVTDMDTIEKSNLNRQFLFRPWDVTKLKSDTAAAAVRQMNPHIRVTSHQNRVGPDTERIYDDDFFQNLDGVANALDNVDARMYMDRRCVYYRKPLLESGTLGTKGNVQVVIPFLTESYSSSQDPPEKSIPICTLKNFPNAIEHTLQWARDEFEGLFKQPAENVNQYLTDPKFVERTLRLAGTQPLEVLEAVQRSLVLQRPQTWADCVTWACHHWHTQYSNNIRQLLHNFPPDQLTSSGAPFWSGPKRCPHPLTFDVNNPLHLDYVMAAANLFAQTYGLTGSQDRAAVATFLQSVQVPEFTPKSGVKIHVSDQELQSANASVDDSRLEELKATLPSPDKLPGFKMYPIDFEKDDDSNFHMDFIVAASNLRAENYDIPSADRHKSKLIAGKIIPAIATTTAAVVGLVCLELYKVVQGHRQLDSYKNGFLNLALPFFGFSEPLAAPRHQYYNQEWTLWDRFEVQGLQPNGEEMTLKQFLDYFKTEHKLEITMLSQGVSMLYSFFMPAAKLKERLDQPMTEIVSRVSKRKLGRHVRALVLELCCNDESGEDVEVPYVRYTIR
Text: as §1, §2, §3, §4, §5, §6, §7, §8, §9, §10, §11, §12, §13, §14, §15

[5] = biological target: SUMO-activating enzyme (SAE) (Homo sapiens, UniProt Q9UBT2); test: biochemical; details: read-out: SAE IC50 HTRF
Sequence of SUMO-activating enzyme (SAE) (Q9UBT2 whole entry): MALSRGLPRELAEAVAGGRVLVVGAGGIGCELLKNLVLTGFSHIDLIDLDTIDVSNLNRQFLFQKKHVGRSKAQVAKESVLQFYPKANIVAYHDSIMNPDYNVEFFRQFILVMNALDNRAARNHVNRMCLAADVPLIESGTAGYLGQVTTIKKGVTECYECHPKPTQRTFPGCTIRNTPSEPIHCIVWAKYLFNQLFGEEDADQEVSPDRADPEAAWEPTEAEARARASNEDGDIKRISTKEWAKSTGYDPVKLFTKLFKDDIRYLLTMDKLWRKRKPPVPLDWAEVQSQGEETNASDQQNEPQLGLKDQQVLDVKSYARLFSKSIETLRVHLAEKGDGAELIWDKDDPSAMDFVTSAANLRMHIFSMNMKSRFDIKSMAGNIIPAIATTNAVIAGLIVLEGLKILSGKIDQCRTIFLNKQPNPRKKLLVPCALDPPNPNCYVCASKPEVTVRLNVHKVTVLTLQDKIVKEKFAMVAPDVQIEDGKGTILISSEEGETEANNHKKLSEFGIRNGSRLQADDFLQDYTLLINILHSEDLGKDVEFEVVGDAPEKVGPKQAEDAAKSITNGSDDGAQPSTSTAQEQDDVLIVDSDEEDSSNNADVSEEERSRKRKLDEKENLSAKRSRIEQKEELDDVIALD
Sequence of SUMO-activating enzyme (SAE) (Q9UBE0 whole entry partner): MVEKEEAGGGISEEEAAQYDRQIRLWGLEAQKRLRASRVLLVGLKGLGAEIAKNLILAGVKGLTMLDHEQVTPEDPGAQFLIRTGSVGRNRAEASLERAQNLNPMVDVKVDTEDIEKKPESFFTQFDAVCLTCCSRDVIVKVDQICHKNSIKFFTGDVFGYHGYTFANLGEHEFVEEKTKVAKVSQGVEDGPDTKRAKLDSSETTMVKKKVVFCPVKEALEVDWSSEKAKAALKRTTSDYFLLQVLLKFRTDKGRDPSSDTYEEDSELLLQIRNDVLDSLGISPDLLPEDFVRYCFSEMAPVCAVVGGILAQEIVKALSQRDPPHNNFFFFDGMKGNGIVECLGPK
Text: as §1, §2, §3, §4, §5, §6, §7, §8, §9, §10, §11, §12, §13, §14, §15

[6] = tested on: P. falciparum Dd2 PfYRSS234C mutant lines; test: 72-h sensitivity of CRISPR-edited PfYRSS234C clones; format: cell-based, Plasmodium falciparum; details: for IC50: Plasmodium falciparum, DD2, 72 h, 72-h exposure
Experimental: 700 the drug plate. Lowest drug treatment and a lethal dose of chloroquine (200 nM) served as reference
701 controls. Growth inhibition was analysed after 72 h using the Renilla-Glo(R) Luciferase Assay System (ref
702 no E2750 Promega) and the GloMax® Discover Multimode Microplate Reader (Promega), and IC50 values
703 were obtained from corrected dose-response curves using GraphPad Prism (version 8; GraphPad Software).
705 Generation of PfYRSS234C transfectants
706 CRISPR/Cas9 was used to generate parasites encoding the S234C mutation in exon 2 of PfYRS, as shown
707 in Suppl Figure 6. Two guide RNAs (gRNA1: […] and gRNA2:
708 […]) were selected using Benchling (benchling.com), and cloned into the
709 pDC2-coCas9-gRNA plasmid essentially as described previously (58). A donor template of 645 bp,
710 encompassing the majority of the 708 bp exon 2, was synthesized (ThermoFisher) and cloned into the
711 AatII/EcoRI sites of both the pDC2-coCas9-gRNA1 and pDC2-coCas9-gRNA2 plasmids. In addition to
712 the TCC>TGC (S234C) mutation, additional silent shield mutations were introduced to prevent gRNA-
713 Cas9 complex binding, as shown in Suppl Figure 6. Ring-stage P. falciparum parasites (Dd2 strain) at 10%
714 parasitemia (150 µL of packed cells) were transfected with 50 µg of plasmid DNA using a BioRad Gene
715 Pulser II (310 V, 950 µF), and selected with 5 nM WR99210 (Jacobus Pharmaceuticals) for 8 days, after
716 which culture was continued without drug pressure until transfectants were obtained. Clones of the
717 PfYRSS234C mutant parasites were isolated by limiting dilution and verified by Sanger sequencing. […]
729 Cam 3.II_Rev (25) trophozoite-infected RBCs (25-30 h p.i.) were incubated with inhibitor for 3 h at 10%
730 hematocrit and 5% parasitemia. The RBC pellet was washed 3 x in PBS + cOmplete. Cells were centrifuged
731 at 380 x g for 5 min and the pelleted cells lysed by resuspension in PBS + 0.05% saponin for 5 min on ice.

Sequence of PfYRS (Q8IAR7 entry or part of it): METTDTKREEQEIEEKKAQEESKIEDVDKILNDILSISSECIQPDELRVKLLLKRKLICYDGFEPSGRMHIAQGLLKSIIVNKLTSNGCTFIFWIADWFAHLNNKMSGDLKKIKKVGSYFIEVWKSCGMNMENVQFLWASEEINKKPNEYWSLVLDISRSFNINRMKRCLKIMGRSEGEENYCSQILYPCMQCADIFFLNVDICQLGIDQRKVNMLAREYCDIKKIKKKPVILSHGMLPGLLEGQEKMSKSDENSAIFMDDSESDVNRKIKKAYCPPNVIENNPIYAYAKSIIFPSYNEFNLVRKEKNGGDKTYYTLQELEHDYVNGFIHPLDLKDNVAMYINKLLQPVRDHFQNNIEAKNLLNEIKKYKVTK

## Nc1ncnc2c1c(OC(F)F)nn2[C@@H]1O[C@H](COS(N)(=O)=O)[C@@H](O)[C@H]1O [ML901]
[1]
  increase of apparent protein melting point (Tm): 15 °C
[2]; A to B
  Papp A→B: 0.7 ×10⁻⁶ cm/s
[2]; B to A
  Papp B→A: 0.82 ×10⁻⁶ cm/s
[3]
  IC50: > 1000 nM
[4]
  IC50: > 1000 nM
[5]
  IC50: > 1000 nM
[6]; Dd2 parent transfectants harboring PfYRSS234C
  decreased sensitivity of PfYRSS234C transfectants: 10 fold
[6]; Mutant E12 (PfYRSS234C)
  IC50: 22 ± 1 nM
[6]; Mutant F5 (PfYRSS234C)
  IC50: 22 ± 3 nM
[6]; Mutant G12 (PfYRSS234C)
  IC50: 20 ± 1 nM
